From patent US6579881B2 (Eisai Co., Ltd., priority 1997, dated 2003)

Experiments:
serotonin 1A receptor = target: T1, serotonin 1A receptor (Rattus norvegicus, UniProt P19327); test: Binding test on [3H] 8-hydroxy-dipropylaminotetralin (serotonin 1A receptor); settings: [3H] 8-OH-DPAT 0.5 nM, receptor fraction of rat hippocampus; read-out: 5HT1a
T1 construct: To the receptor fraction of the hippocampus were added a test compound and 0.5 nM of [^3H]; 8-hydroxy-dipropylaminotetralin; from tissue; host or cells: SD rat hippocampus, membrane (receptor) fraction
T1 sequence (P19327 1-422): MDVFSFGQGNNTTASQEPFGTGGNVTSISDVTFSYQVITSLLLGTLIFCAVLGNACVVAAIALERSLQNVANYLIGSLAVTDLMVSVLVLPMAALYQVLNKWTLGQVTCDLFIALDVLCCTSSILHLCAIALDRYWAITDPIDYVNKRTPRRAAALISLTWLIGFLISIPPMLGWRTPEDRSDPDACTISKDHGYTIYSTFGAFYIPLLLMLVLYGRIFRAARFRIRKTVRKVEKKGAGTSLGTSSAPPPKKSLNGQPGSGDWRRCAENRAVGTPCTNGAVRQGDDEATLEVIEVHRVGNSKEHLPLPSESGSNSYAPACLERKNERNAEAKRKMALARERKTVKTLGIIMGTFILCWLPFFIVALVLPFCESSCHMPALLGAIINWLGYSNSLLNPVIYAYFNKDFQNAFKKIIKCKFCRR

serotonin 2 receptor = serotonin 2 receptor (Rattus norvegicus, UniProt P14842); test: Binding test on [3H] ketanserin (serotonin 2 receptor); settings: [3H] ketanserin 0.3 nM, receptor fraction of rat cerebral cortex; read-out: 5HT2
Sequence of serotonin 2 receptor (P14842 whole entry): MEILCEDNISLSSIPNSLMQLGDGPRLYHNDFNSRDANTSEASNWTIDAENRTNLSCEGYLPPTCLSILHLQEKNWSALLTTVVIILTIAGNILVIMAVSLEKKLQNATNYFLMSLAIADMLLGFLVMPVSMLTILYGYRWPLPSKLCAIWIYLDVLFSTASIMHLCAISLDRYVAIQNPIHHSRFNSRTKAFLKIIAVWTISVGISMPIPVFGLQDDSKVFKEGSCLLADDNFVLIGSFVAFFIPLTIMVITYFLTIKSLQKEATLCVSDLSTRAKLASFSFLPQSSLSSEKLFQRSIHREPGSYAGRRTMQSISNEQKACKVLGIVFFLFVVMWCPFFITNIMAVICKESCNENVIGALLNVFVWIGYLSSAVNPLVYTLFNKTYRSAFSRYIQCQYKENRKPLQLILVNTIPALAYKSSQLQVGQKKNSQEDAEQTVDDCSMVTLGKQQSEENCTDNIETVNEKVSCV

| SMILES | Ki (serotonin 1A receptor) [nM] | Ki (serotonin 2 receptor) [nM] |
| --- | --- | --- |
| CS(=O)(=O)NCc1ccc2c(c1)N(C1CCN(CCc3ccc(F)cc3)CC1)CC2 [Example 160, 1-[1-(4-fluorophenethyl)piperidin-4-yl]-6-methylsulfonylaminomethylindoline] | 3.86 | 8 |
| c1ccc2c(c1)CCN2C1CCN(CCc2ccc3c(c2)OCO3)CC1 [Example 46, 1-{1-[3,4-(methylenedioxy)phenethyl]piperidin-4-yl}indoline] | 1.1 | 4.2 |
| CC1CC(=C2CCN(CCc3ccc(F)cc3)CC2)c2nccnc21 (centres unmarked) [Example 265, 5-[1-(4-fluorophenethyl)piperidin-4-ylidene]-7-methyl-5,6-dihydrocyclopentapyrazine] | 25.2 | 34.2 |
| CS(=O)(=O)Nc1ccc2c(c1)N(C1CCN(CCc3ccc(F)cc3)CC1)CC2 [Example 116, 1-[1-(4-fluorophenethyl)piperidin-4-yl]-6-methanesulfonylaminoindoline] | 0.5 | 14.3 |
| O=C1CSC(=O)N1Cc1ccc2c(c1)N(C1CCN(CCc3ccc(F)cc3)CC1)CC2 [Example 209, 1-[1-(4-fluorophenethyl)piperidin-4-yl]-6-(2,4-thiazolidinedion-3-yl)methylindoline] | 6.98 | 4.72 |
| Fc1ccc(CCN2CCC(N3CCc4ccc(Cl)nc43)CC2)cc1 [Example 259, 1-[1-(4-fluorophenethyl)piperidin-4-yl]-6-chloro-7-azaindoline] | 0.6 | 5.9 |
| NC(=O)c1ccc(CCN2CCC(N3CCc4ccccc43)CC2)cc1 [Example 40, 1-[1-(4-carbamoylphenethyl)piperidin-4-yl]indoline] | 43.7 | > 200 |
| Clc1cccc(CCN2CCC(N3CCc4ccccc43)CC2)c1 [Example 5, 1-[1-(3-chlorophenethyl)piperidin-4-yl]indoline] | 10.1 | 8.1 |
| OCc1ccc(CCN2CCC(N3CCc4ccccc43)CC2)cc1CO [Example 45, 1-{1-[3,4-di(hydroxymethyl)phenethyl]piperidin-4-yl}indoline] | 15.2 | 6.4 |
| O=C1OCCN1Cc1ccc2c(c1)N(C1CCN(CCc3ccc(F)cc3)CC1)CC2 [Example 208, 1-[1-(4-fluorophenethyl)piperidin-4-yl]-6-(2-oxazolidon-3-yl)methylindoline] | 2.33 | 1.05 |
| Fc1ccc(CCN2CCC(N3CCc4ccc(-c5ccccn5)cc43)CC2)cc1 [Example 171, 1-[1-(4-fluorophenethyl)piperidin-4-yl]-6-(2-pyridyl)indoline] | 0.39 | 178 |
| Fc1ccc(CCN2CCC(n3ccc4ccccc43)CC2)c(F)n1 [Example 332, 1-[1-(2,6-difluoro-3-pyridylethyl)piperidin-4-yl]indole] | 2.24 | 16.2 |
| c1ccc2c(c1)CCN2C1CCN(CCc2nccs2)CC1 [Example 60, 1-[1-(2-thiazolylethyl)piperidin-4-yl]indoline] | 60.8 | > 200 |
| OCc1ccc(CCN2CCC(N3CCc4ccccc43)CC2)cn1 [Example 55, 1-{1-[2-(2-hydroxymethylpyridin5-yl)ethyl]piperidin-4-yl}indoline] | 41.9 | 17.8 |
| O=C(Cc1ccc2c(c1)N(C1CCN(CCc3ccc(F)cc3)CC1)CC2)N1CCCC1 [Example 155, 1-[1-(4-fluorophenethyl)piperidin-4-yl]-6-(tetramethylenecarbamoylmethyl)indoline] | 14.8 | 1.33 |
| CCN1CCN([C@@H]2c3ccccc3CC2N(C)Cc2ccc(F)cc2)CC1 (some centres unmarked) [Example 254] | > 200 | 177 |
| CS(=O)(=O)Oc1ccc2c(c1)N(C1CCN(CCc3ccc(F)cc3)CC1)CC2 [Example 122, 1-[1-(4-fluorophenethyl)piperidin-4-yl]-6-methanesulfonyloxyindoline] | 0.2 | 15.2 |
| Fc1ccc(CCN2CCC(N3CCc4ccccc43)CC2)c(F)c1 [Example 10, 1-[1-(2,4-difluorophenethyl)piperidin-4-yl]indoline] | 8.1 | 6 |

Next, values leading:

| Ki (serotonin 1A receptor) [nM] | Ki (serotonin 2 receptor) [nM] | SMILES |
| --- | --- | --- |
| 16.4 | 13.8 | CCN1CCC(Cc2ccc3c(c2)N(C2CCN(CCc4ccc(F)cc4)CC2)CC3)CC1 [Example 169, 1-[1-(4-fluorophenethyl)piperidin-4-yl]-6-[(1-ethylpiperidin-4-yl)methyl]indoline] |
| 41.9 | 27.6 | OCc1ccc(OCCCN2CCC(N3CCc4ccccc43)CC2)cc1 [Example 70, 1-{1-[3-(4-hydroxymethylphenoxy)propyl]piperidin-4-yl}indoline] |
| 16.4 | 0.27 | CC(C)CNC(=O)Cc1ccc2c(c1)N(C1CCN(CCc3ccc(F)cc3)CC1)CC2 [Example 152, 1-[1-(4-fluorophenethyl)piperidin-4-yl]-6-(isobutylcarbamoylmethyl)indoline] |
| 10.2 | 2.53 | OC(c1ccncc1)c1ccc2c(c1)N(C1CCN(CCc3ccc(F)cc3)CC1)CC2 (centres unmarked) [Example 178] |
| 5 | 12.5 | Cc1ncsc1CCN1CCC(N2CCc3ccccc32)CC1 [Example 61, 1-[1-(4-methyl-5-thiazolethyl)piperidin-4-yl]indoline] |
| 1.3 | 12.9 | Fc1ccc(CCN2CCC(N3CCc4cccnc43)CC2)cc1 [Example 260, 1-[1-(4-fluorophenethyl)piperidin-4-yl]-7-azaindoline] |
| 6.23 | 35.1 | OC1(c2ccc3c(c2)N(C2CCN(CCc4ccc(F)cc4)CC2)CC3)CCC1 [Example 140, 1-[1-(4-fluorophenethyl)piperidin-4-yl]-6-(1-hydroxycyclobutyl)indoline] |
| 1.49 | 3.38 | CC(F)c1ccc2c(c1)N(C1CCN(CCc3ccc(F)cc3)CC1)CC2 (centres unmarked) [Example 144, 1-[1-(4-fluorophenethyl)piperidin-4-yl]-6-(1-fluoroethyl)indoline] |
| 3.6 | 30.3 | O=C(NCCN1CCC(N2CCc3ccccc32)CC1)c1ccc(F)cc1 [Example 75, 1-[1-(4-fluorobenzamido)ethylpiperidin-4-yl]indoline] |
| 1.67 | 1.17 | OC(c1ccc2c(c1)N(C1CCN(CCc3ccc(F)cc3)CC1)CC2)c1cncs1 (centres unmarked) [Example 196, 1-[1-(4-fluorophenethyl)piperidin-4-yl]-6-[1-(5-thiazolyl)-1-hydroxymethyl]indoline] |
| 0.17 | 15.2 | O/N=C/c1ccc2c(c1)N(C1CCN(CCc3ccc(F)cc3)CC1)CC2 [Example 131, 1-[1-(4-fluorophenethyl)piperidin-4-yl]-6-hydroxyiminomethylindoline] |
| 21.5 | 2.1 | COc1cncc(CCN2CCC(N3CCc4ccccc43)CC2)c1 [Example 53, 1-{1-[2-(3-methoxypyridin-5-yl)ethyl]piperidin-4-yl}indoline] |
| 47.2 | 39.5 | Brc1cnn(CCN2CCC(N3CCc4ccccc43)CC2)c1 [Example 68, 1-{1-[2-(4-bromopyrazol-1-yl)ethyl]piperidin-4-yl}indoline] |
| 19 | 16.4 | Fc1ccc(CCN2CCC(CCN3CCc4ccccc43)CC2)cc1 [Example 17, 1-{2-[1-(4-fluorophenethyl)piperidin-4-yl]ethyl}indoline] |
| 0.04 | 18.1 | CC(=O)Nc1ccc2c(c1)N(C1CCN(CCc3ccc(F)cc3F)CC1)CC2 [Example 222, 1-[1-(2,4-difluorophenethyl)piperidin-4-yl]-6-acetamidoindoline] |
| 0.21 | 5.08 | CC(=O)c1ccc2c(c1)N(C1CCN(CCc3ccc(F)cc3)CC1)CC2 [Example 127, 1-[1-(4-fluorophenethyl)piperidin-4-yl]-6-acetylindoline] |
| 37.6 | 48.2 | CC(=O)NCc1ccc2c(c1)N(C1CCN(CCCOc3ccc(F)cc3)CC1)CC2 [Example 232, 1-[1-(4-fluorophenoxypropyl)piperidin-4-yl]-6-acetamidomethylindoline] |
| 2.7 | 28.4 | Fc1ccc(CCN2CCC(N3CCc4ccc(Cl)cc43)CC2)cc1 [Example 102, 1-[1-(4-fluorophenethyl)piperidin-4-yl]-6-chloroindoline] |
| 1030 | 9.62 | CC(O)(c1ccc2c(c1)N(C1CCN(CCc3ccc(F)cc3)CC1)CC2)c1ccccn1 (centres unmarked) [Example 181, 1-[1-(4-fluorophenethyl)piperidin-4-yl]-6-[1-hydroxy-1-(2-pyridyl)ethyl]indoline] |
| 20.7 | 1.7 | OCc1cncc(CCN2CCC(N3CCc4ccccc43)CC2)c1 [Example 56, 1-{1-[2-(3-hydroxymethylpyridin-5-yl)ethyl]piperidin-4-yl}indoline] |
| 71.2 | 5.3 | OC[C@H]1CN(CCc2ccc(F)cc2)CC[C@@H]1N1CCc2ccccc21 (relative stereo) [Example 82, trans-1-[1-(4-fluorophenethyl)-3-hydroxymethylpiperidin-4-yl]indoline] |
| > 200 | 15.7 | OC1(C2CCc3cccnc32)CCN(CCc2ccc(F)cc2)CC1 (centres unmarked) [Example 255, 7-[4-hydroxy-1-(4-fluorophenethyl)piperidin-4-yl]-5,6-dihydro-7H-pyrindine] |
